Assay results published in patent US20100129933A1, “METHOD FOR DETECTING THE BINDING BETWEEN MDM2 AND THE PROTEASOME” (Forschungszentrum Karlsruhe GmbH, priority 2007, published 2010).
Peptide text beside a SMILES is read from it. * marks the point of attachment. Cbz = O=C(OCc1ccccc1)*

How the values were obtained:
[1] = test system: p53 ubiquitination; test: Cellular p53 ubiquitylation assay in U2OS cells; assay type: cell-based; conditions: His-tagged ubiquitin, 10 μM, 2 hours
Method: After incubation ubiquitylated proteins were purified by adsorption to Ni2+-agarose and separated by SDS-PAGE. P53 was detected by Western blotting. (TCL: Total cell lysate)
To test this option, we performed an cellular ubiquitylation assay in the presence of the compound.

[2] = biological target: T1, HDM2 (Homo sapiens, UniProt Q00987); test: Limited proteolysis of GST-HDM2 by trypsin; assay type: binding; conditions: 10 μM compound, 40 ng trypsin, 15 min on ice
T1 construct: made in house; host or cells: bacteria (pGEX-4T-2 vector)
T1 sequence (Q00987 whole entry): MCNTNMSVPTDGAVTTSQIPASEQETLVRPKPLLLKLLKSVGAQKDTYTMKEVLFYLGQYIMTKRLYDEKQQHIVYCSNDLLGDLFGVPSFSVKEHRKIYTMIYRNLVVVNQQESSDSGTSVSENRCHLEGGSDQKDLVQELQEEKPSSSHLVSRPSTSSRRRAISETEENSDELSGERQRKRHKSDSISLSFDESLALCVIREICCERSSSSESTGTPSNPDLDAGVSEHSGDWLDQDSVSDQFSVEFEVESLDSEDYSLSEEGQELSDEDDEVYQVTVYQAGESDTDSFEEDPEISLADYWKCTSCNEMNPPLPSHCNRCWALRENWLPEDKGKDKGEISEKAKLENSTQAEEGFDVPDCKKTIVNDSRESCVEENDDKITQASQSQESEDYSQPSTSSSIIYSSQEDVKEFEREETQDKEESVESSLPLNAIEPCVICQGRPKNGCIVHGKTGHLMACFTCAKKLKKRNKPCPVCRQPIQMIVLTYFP
Method: GST-HDM2, GST-HDMX were incubated with 10 μM of JNJ-#1 or with DMSO for control. Then 40 ng trypsin were added and the mixture was incubated for 15 min on ice. […] HDM2 was detected by incubating the membrane with the HDM2 antibodies 4B2, SMP14 and C18. Western blots were developed by ECL.
40 ng of trypsin were added and the mixture was incubated for 15 min on ice. Samples were separated by 10% SDS-PAGE gel and blotted onto Immobilon P membrane. The membrane was incubated with the anti-HDM2 antibody 4B2. The Western blot was developed by ECL.
Then 40 ng trypsin was added and the mixture was incubated for 15 min on ice. Proteolysis was stopped by addition of 2× sample buffer. Samples were loaded onto an 12 or 15% SDS-PAGE gel and HDM2 or HDMX were detected by Western blotting.

Compound	ubiquitylation of p53 [1]	proteolysis of GST-HDM2 by trypsin [2]
COc1ccc(C2=N[C@@H](c3ccc(Cl)cc3)[C@@H](c3ccc(Cl)cc3)N2C(=O)N2CCNC(=O)C2)c(OC(C)C)c1 [Nutlin-3]	strongly reduced	
CC(C)C[C@@H](C=O)NC(=O)[C@H](CC(C)C)NC(=O)[C@H](CC(C)C)NC(=O)OCc1ccccc1 [MG132] (Cbz-Leu-Leu-Leu-aldehyde)		had no affect
